“Also recorded” adds a separate entry of the source. Ends that are not written are not given here. * marks the point of attachment. FITC = O=C1OC2(c3ccc(O)cc3Oc3cc(O)ccc32)c2ccc(NC(=S)*)cc21
Legend:
[1] = target: T1, X-protein N-terminal peptide 1-50 (Hepatitis B virus genotype C subtype adr, UniProt Q81163, DEL44-44/P38S/S41A/S42F/V5L); test: Peptide binding assay: FITC-peptides on peptide 1-50-coated plates; settings: FITC-peptide at 10, 20, 40 μg/ml, 30 min
T1 construct: The parent peptide containing aa 1-50 conjugated N-terminally to a biotin tag; purchased; host or cells: chemical synthesis
Description: Qligomerization peptides were received in powdered form, and were weighed and diluted in a sterile 10% DMSO solution to make a 10 mg/ml stock solution. The wells of a Reactibind neutravidin-coated 96 well plate (Thermoscientific cat #15507) were thrice washed with 200 μl of plate washing buffer. Peptide 1-50, which contains a biotin tag, was diluted to 10 μg/ml in wash buffer and 100 μl of the solution was placed into each well being used. The plate was incubated at room temperature for 2 h, and the wells washed thrice with 200 μl of wash buffer. Truncated fluorescent variants of peptide 1-50 at 40 μg/ml, 20 μg/ml, and 10 μg/ml were added to the wells in triplicate, and the plates incubated at room temperature for 30 min. The wells were then washed thrice with 200 μl of wash buffer under low light conditions, and the plate read on a Biotek fluorescent plate reader at an excitation wavelength of 490 nm and an emission wavelength of 520 nm.
A ligand-binding assay was performed using streptavidin-coated plates in order to define the minimum peptide motif needed for dimerization of the X-protein. In this scenario the X-protein monomer serves as its own ligand. […] A series of short peptides from the region encoding aa 1-50 were synthesized. The parent peptide containing aa 1-50 conjugated N-terminally to a biotin tag was added to the streptavidin coated plates. […] Non-biotinylated peptides encoding aa 1-20, 16-35, 21-40 and 34-53 were added at 10, 20, and 40 μg/ml to the wells coated with peptide aa 1-50. The smaller peptides were each conjugated to a FITC tag for detection using a fluorescent plate reader. […] Binding performed with lesser concentrations of the peptides was not significant. Even smaller peptides encompassing that region 16-35 were made to determine whether the aa 16-35 was the minimum peptide motif needed for X-protein dimerization. These peptides synthesized, namely aa 16-26, 16-24, and 16-22 were analyzed using the same peptide binding assay. […] Thus of the peptides examined, the minimal peptide motif needed for dimerization of the X-protein is the […] peptide 16-35.

HepG2 cells [2] = test: Assay for cell permeability of X-protein peptides (fluorescence and confocal microscopy); type: cell-based, human; settings: for uptake by HepG2 cells (cell permeability): FITC-labelled peptide 10 μM, 3 h, medium without FCS; for intracellular distribution (confocal slicing): FITC-labelled peptide, HepG2 cells
Description: (§1) The cells were then incubated overnight at 37° and 5% CO2, and then washed thrice with media without FCS. The X-protein peptide in 250 μl of appropriate media without FCS was added to the cells at a final concentration of 10 μM, and the slides incubated for 3 h at 37° C. and 5% CO2. The cells were washed with PBS, fixed with 4% formaldahyde in PBS for 30 min, and washed thrice with PBS. […] The slides were dried overnight in the dark, and examined by microscopy by using a Nikon E600 fluorescent microscope. Photos were taken using Nikon ACT-1 software. For further examination, slides were then examined by confocal microscopy using a Leica TCS-SP2 confocal microscope.

HepG2 cells [3] = test: Pathway of peptide entry: pretreatment with cytochalasin D or heparin; type: cell-based, human; settings: 30 min pretreatment, 10 μM peptide, 3 h; for effect of heparin pretreatment on peptide entry: 2 μg/ml heparin
Description: Cells were plated overnight at 1×10^5 per well in eight chamber slides in complete MEM medium containing 10% FCS. The cells were washed thrice with MEM medium, and pretreated for 30 min with either 10 μm cytochalasin D or 2 μg/ml of heparin in MEM at 37° C. Peptide was then added at a concentration of 10 μM and cells were incubated for 3 h at 37° and 5% CO2. The cells were washed with PBS, fixed with 4% formaldehyde and PBS for 30 min, and a drop of Prolong Gold antifade reagent with DAPI (Invitrogen cat# P36931) was added to each well. The slides were dried overnight in the dark, and examined by microscopy by using a Nikon E600 fluorescent microscope. Photos were taken using Nikon ACT-1 software.
Exactly how cell-permeable peptides pass through the plasma membrane of cells is still not fully understood. […] Actin elongation on the cell surface leads to an extension of the plasma membrane into the extracellular environment. When the plasma membrane fuses back with itself it forms macropinosomes, and in doing so encapsulates and internalizes a large volume of extracellular fluid. Another mechanism is via the binding of peptides to cell surface heparan sulphate proteoglycans, which leads to internalization of the peptide through an endocytic process. HepG2 cells were pretreated with cytochalasin D and heparin, and then incubated with FITC-labelled cell permeable peptides aa 16-22, and aa 16-35 for 3 h to determine whether either of the above two mechanisms mediated cell uptake of the X-protein peptides. Control cells were treated with the X-protein peptides but were not treated with either chemical. Cytochalasin D is an F-actin elongation inhibitor, which inhibits macropinocytosis by inhibiting extension of the plasma membrane. Heparin would be expected to antagonize the binding of the peptides to cell surface heparan sulphate proteoglycans.

C32 melanoma cell line = test: Peptide uptake by other cell lines; type: cell-based, human; settings: C32, 3 h
Description: as §1
(§2) The X-protein cell-permeable peptide aa 16-22 was tested for its ability to be taken up by other mammalian cell lines including the human C32 melanoma, DU145 prostate carcinoma, TK1 T cell lymphoma, H441 lung carcinoma, Rin-m5f rat pancreatic islet tumor and Cos-1/7 green monkey kidney cell lines. TK1 cells are suspension cells whereas all other cell lines are adherent cells. Cells were incubated with the fluoresceinated X-protein cell-permeable peptide 16-22 for 3 h in medium appropriate for that cell line in the absence of FCS. The HepG2 cell line was used as a positive control. The X-protein peptide was able enter all adherent cell lines regardless of type or source of the cell (FIGS. 22 and 23).

[4] = test system: DU145 prostate carcinoma cell line; test: Peptide uptake by other cell lines; type: cell-based, human; settings: DU145, 3 h
Description: as §1, §2

[5] = test system: H441 lung carcinoma cell line; test: Peptide uptake by other cell lines; type: cell-based, human; settings: H441, 3 h
Description: as §1, §2

Cos-7 kidney cell line = test: Peptide uptake by other cell lines; type: cell-based, green monkey
Description: as §1, §2

[6] = test system: nonadherent erythrocytes and platelets; test: Peptide uptake in whole blood; type: cell-based; settings: whole blood in 10 mM citrate buffer, 3 h
Description: Whole blood was incubated with the fluoresceinated X-protein cell-permeable peptide aa 16-22 for 3 h to determine whether erythrocytes and platelets are able to take up the peptide. Blood was collected from a finger prick and suspended in 10 mM citrate buffer to prevent the blood clotting. After incubation with peptide the cells were washed in PBS and a blood smear prepared on a glass slide. The cells were stained with Diff-Quik.

[7] = listed as X-protein cell-permeable peptide 16-22

| Substance | binding to peptide 1-50 (fluorescence) [1] | uptake by HepG2 cells (cell permeability) (HepG2 cells [2]; [7]) | uptake by HepG2 cells (cell permeability) (HepG2 cells [2]; listed as aa 16-22) | intracellular distribution (confocal slicing) (HepG2 cells [2]; listed as aa 16-22) | uptake of the peptide, cells positive (HepG2 cells [2]; HepG2, 3 h, no FCS) [% cells positive] | effect of heparin pretreatment on peptide entry (HepG2 cells [3]; listed as aa 16-22) | effect of cytochalasin D pretreatment on peptide entry (HepG2 cells [3]) | entry into cells (C32 melanoma cell line) | uptake of the peptide, cells positive (C32 melanoma cell line; no FCS) [% cells positive] | entry into cells [4] | uptake of the peptide, cells positive ([4]; no FCS) [% cells positive] | entry into cells [5] | uptake of the peptide, cells positive ([5]; no FCS) [% cells positive] | entry into cells (Cos-7 kidney cell line; COS-7, 3 h) | uptake of the peptide, cells positive (Cos-7 kidney cell line; Cos-7, 3 h, no FCS) [% cells positive] | uptake by erythrocytes and platelets [6, 7] | uptake by erythrocytes and platelets ([6]; listed as X-protein cell-permeable peptide aa 16-22) | uptake by HepG2 cells (cell permeability) (HepG2 cells [2]; listed as aa 16-35) | intracellular distribution (confocal slicing) (HepG2 cells [2]; listed as aa 16-35) | effect of heparin pretreatment on peptide entry (HepG2 cells [3]; listed as aa 16-35) |
| --- | --- | --- | --- | --- | --- | --- | --- | --- | --- | --- | --- | --- | --- | --- | --- | --- | --- | --- | --- | --- |
| FITC-LCLRPVG ({FITC}-LCLRPVG) [Peptide 16-22] | could not match the strong binding shown by the parental peptide 16-35 | able to enter | cell-permeable, being taken up by cells at a level equivalent to that of the parental peptide aa 16-35; also recorded: taken up into the cells | taken up into both the cytoplasm and nucleus of cells | > 90 | dependent on heparin binding; also recorded: effectively blocked peptide entry into the cells | no effect on the entry of the peptides into the cell | able to enter | > 90 | able to enter | > 90 | taken up less efficiently | 60 to 70 | taken up less efficiently | 60 to 70 | does not enter | None of the cell types present |  |  |  |
| FITC-Acp-LCLRPVGAESRGRPVSGPFG [Peptide 16-35] | bound significantly more strongly to peptide 1-50; also recorded: binds to the X-protein N-terminal peptide 1-50 |  |  |  |  |  | no effect on the entry of the peptides into the cell |  |  |  |  |  |  |  |  |  |  | cell-permeable; also recorded: readily taken up by the cells | taken up into the cytoplasm and nucleus; also recorded: taken up into the cell cytoplasm, as well as into the nucleus | dependent on heparin binding; also recorded: effectively blocked peptide entry into the cells |

From patent publication US20150158914A1, “PEPTIDES, CONSTRUCTS AND USES THEREFOR” (priority 2010, published 2015)
